The target in one test is T1, HiBiT-tagged MDM2 (Homo sapiens, UniProt Q00987).
T1 construct: expressed in transfected cells
Briefly: MDM2 HiBit HEK293T degradation. The settings on record: HEK293T cells stably expressing C-terminally HiBiT-tagged MDM2; 4 h; read-out: MDM2 HiBit HEK293T degradation 4 h: Average external-Abs DC50. It counts as cell-based. The essentials: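 Degradation was measured in HEK293T cells stably expressing C-terminally HiBiT-tagged MDM2, a pool selected with 1 microgram/ml puromycin. A MDM2 tool degrader and HaloPROTAC3 served as positive controls. Potency is reported as DC50 in letter bins.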

The test system of a further test is RS411 cells. Briefly: Cell Viability CTG Assay. It counts as cell-based. The settings on record: Homo sapiens, RS4-11, CellTiter Glo (CTG) cell viability, read-out: Average external-IC50. The gist of the method: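 RS411 cells (1000/well) exposed 1 day at 37 °C to compound, 11-point 3-fold dilution from 10 μM top, 0.2% DMSO final. Viability read by CellTiter-Glo luminescence; IC50 reported as letter bins.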
On the technique in general: In ATP-based viability assays light output follows the ATP content of the culture.

As a reminder, the DC50 is the concentration at which degradation of the target reaches its halfway point. The IC50 is the midpoint of a concentration-inhibition curve.

T1 sequence (Q00987 whole entry): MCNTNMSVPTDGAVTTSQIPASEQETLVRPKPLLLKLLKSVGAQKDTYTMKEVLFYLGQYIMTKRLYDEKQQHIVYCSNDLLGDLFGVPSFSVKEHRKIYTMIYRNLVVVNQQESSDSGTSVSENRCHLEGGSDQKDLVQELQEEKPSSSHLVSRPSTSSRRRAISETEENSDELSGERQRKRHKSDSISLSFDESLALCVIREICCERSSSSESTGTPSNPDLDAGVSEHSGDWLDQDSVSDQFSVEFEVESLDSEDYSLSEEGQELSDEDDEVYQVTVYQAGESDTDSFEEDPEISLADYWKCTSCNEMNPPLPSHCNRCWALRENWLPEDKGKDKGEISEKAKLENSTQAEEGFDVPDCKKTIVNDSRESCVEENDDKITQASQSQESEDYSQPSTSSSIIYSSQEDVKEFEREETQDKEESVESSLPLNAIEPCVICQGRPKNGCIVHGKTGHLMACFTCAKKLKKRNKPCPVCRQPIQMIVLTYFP

`O=C(N[C@H]1CC[C@H](CN2CCC(CCCCCC3CCN(C[C@H]4CC[C@H](NC(=O)[C@@H]5NC6(CCCCC6)[C@@]6(C(=O)Nc7cc(Cl)ccc76)[C@H]5c5cccc(Cl)c5F)CC4)CC3)CC2)CC1)[C@@H]1NC2(CCCCC2)[C@@]2(C(=O)Nc3cc(Cl)ccc32)[C@H]1c1cccc(Cl)c1F` [I-87]: the half-maximal degradation concentration (DC50) at HiBiT-tagged MDM2 was over 1000 nM. For the same compound, the IC50 with RS411 cells was over 500 nM.

In the case of `Cn1c(=O)n(C2CCC(=O)NC2=O)c2ccc(N3CC4(CN(C[C@H]5CC[C@H](NC(=O)[C@@H]6NC7(CCCCC7)[C@@]7(C(=O)Nc8cc(Cl)ccc87)[C@H]6c6cccc(Cl)c6F)CC5)C4)C3)cc21` (stereo partly shown) [I-88], the DC50 on HiBiT-tagged MDM2 was under 10 nM. The IC50 in the test on RS411 cells is under 5 nM.

With `CN(CCc1ccc2c(c1)n(C)c(=O)n2C1CCC(=O)NC1=O)CCN(C)C(=O)[C@H]1CC[C@H](NC(=O)[C@@H]2NC3(CCCCC3)[C@@]3(C(=O)Nc4cc(Cl)ccc43)[C@H]2c2cccc(Cl)c2F)CC1` (stereo partly shown) [I-89], on HiBiT-tagged MDM2, the DC50 was under 10 nM. The IC50 in the test on RS411 cells is 5 to 50 nM.

With `CN1C(C(=O)N[C@H]2CC[C@H](C(=O)N3CCC4(CC3)CN(c3ccc5c(c3)n(C)c(=O)n5C3CCC(=O)NC3=O)C4)CC2)[C@H](c2cccc(Cl)c2F)[C@]2(C(=O)Nc3cc(Cl)ccc32)C12CCCCC2` (stereo partly shown) [I-91], the DC50 on HiBiT-tagged MDM2 is under 10 nM. Also, the IC50 with RS411 cells was 5 to 50 nM.

As for `COc1cc2c(cc1OC(C)C)[C@H](c1ccc(Cl)cc1)N(c1ccc(N(C)C[C@H]3CC[C@H](N(CC(=O)O)C(=O)CCCCc4ccc5c(c4)n(C)c(=O)n5C4CCC(=O)NC4=O)CC3)cc1)C(=O)C2` (stereo partly shown) [I-93], the half-maximal degradation concentration (DC50) at HiBiT-tagged MDM2 lay within 100 to 1000 nM. The IC50 in the test with RS411 cells is over 500 nM.

For `Cn1c(=O)n(C2CCC(=O)NC2=O)c2ccc(C3CCN(C[C@H]4CC[C@H](NC(=O)[C@@H]5NC6(CCCCC6)[C@@]6(C(=O)Nc7cc(CC8CC8)ccc76)[C@H]5c5cccc(Cl)c5F)CC4)CC3)cc21` (stereo partly shown) [I-94], at HiBiT-tagged MDM2, the 50% degradation concentration (DC50) was over 1000 nM. The IC50 in the test on RS411 cells is over 500 nM.

For the compound `CCOc1ccc2c(c1)NC(=O)[C@]21[C@@H](c2cccc(Cl)c2F)[C@H](C(=O)N[C@H]2CC[C@H](CN3CCC(c4ccc5c(c4)n(C)c(=O)n5C4CCC(=O)NC4=O)CC3)CC2)NC12CCCCC2` (stereo partly shown) [I-95], at HiBiT-tagged MDM2, the half-maximal degradation concentration (DC50) lay in the range of 100 to 1000 nM. Besides, the IC50 with RS411 cells is over 500 nM.

As for `CCOc1ccc2c(c1)NC(=O)C21[C@@H](c2cccc(Cl)c2F)[C@H](C(=O)N[C@H]2CC[C@H](C(=O)C3CCN(CCCc4ccc5c(c4)n(C)c(=O)n5C4CCC(=O)NC4=O)CC3)CC2)NC12CCCCC2` (stereo partly shown) [I-96], the DC50 on HiBiT-tagged MDM2 is under 10 nM. For the same compound, the IC50 in the test on RS411 cells was over 500 nM.

In the case of `Cn1c(=O)n(C2CCC(=O)NC2=O)c2ccc(CCN3CCC(NC(=O)[C@@H]4NC5(CCCCC5)[C@@]5(C(=O)Nc6cc(Cl)ccc65)[C@H]4c4cccc(Cl)c4F)CC3)cc21` (stereo partly shown) [I-97], the DC50 at HiBiT-tagged MDM2 is under 10 nM. Besides, the IC50 with RS411 cells is 5 to 50 nM.

In the case of `Cn1c(=O)n(C2CCC(=O)NC2=O)c2ccc(CN3CCC(NC(=O)[C@@H]4NC5(CCCCC5)[C@@]5(C(=O)Nc6cc(Cl)ccc65)[C@H]4c4cccc(Cl)c4F)CC3)cc21` (stereo partly shown) [I-98], at HiBiT-tagged MDM2, the DC50 is 100 to 1000 nM. The IC50 with RS411 cells fell in the range of 5 to 50 nM.

Regarding `O=C(O)Cn1c(=O)n(C2CCC(=O)NC2=O)c2ccc(C3CCN(C(=O)[C@H]4CC[C@H](NC(=O)[C@@H]5NC6(CCCCC6)[C@@]6(C(=O)Nc7cc(Cl)ccc76)[C@H]5c5cccc(Cl)c5F)CC4)CC3)cc21` (stereo partly shown) [I-99], the DC50 at HiBiT-tagged MDM2 lay within 100 to 1000 nM. For the same compound, in the test on RS411 cells, the IC50 fell in the range of 5 to 50 nM.

These data come from patent publication US20250034147A1, “MDM2 DEGRADERS AND USES THEREOF” (Kymera Therapeutics, Inc., priority 2021, published 2025).
